In patent US7745446B2, “Pyrazolo[1,5-c]pyrimidines” (Bayer Schering Pharma Aktiengesellschaft, priority 2004, dated 2010):

Tests used:
[1] = system: phosphorylated Akt1 (Ser473) in MCF7 cells; assay: Cellular PI3K/Akt pathway assay (pAkt-ELISA); format: cell-based; details: Homo sapiens, β-Heregulin stimulation, 48 h, read-out: Akt pathway inhibition (pAkt-ELISA): IC50
Experimental: In order to study the cellular activity of the compounds according to the invention, an ELISA-based assay has been established. The assay is based on a Sandwich ELISA kit (PathScan™ Phospho-Akt1 (Ser473); Cell Signaling, USA; #7160).
The assay detects endogenous levels of phosphorylated Akt1 protein. A phospho-Akt (Ser473) antibody (Cell Signaling, USA; #9271) has been coated onto the microwells. After incubation with cell lysates, the phosphorylated Akt protein is captured by the coated antibody. Following extensive washing, Akt1 monoclonal antibody (Cell Signaling, USA; #2967) is added to detect the captured phospho-Akt1 protein. HRP-linked anti-mouse antibody (Cell Signaling, USA; #7076) is then used to recognize the bound detection antibody. HRP substrate (=TMB; Cell Signaling, USA; #7160) is added to develop colour. The magnitude of optical density for this developed color is proportional to the quantity of phosphorylated Akt1 protein.
MCF7 cells (ATCC HTB-22) are seeded into 96 well fate bottom plates at a density of 10000 cells/well. 24 hours after seeding the cells are starved using estrogen-free medium (IMEM including 0.1% charcoal treated FCS). […] To stimulate Akt phosphorylation, β-Heregulin (20 ng/ml) is added in parallel to the compounds. Wells containing unstimulated control cells (no β-Heregulin stimulation) are incubated with or without the diluted compound. Wells containing untreated control cells (no compound) are filled with medium containing 0.5% v:v DMSO and are with P-Heregulin or are not stimulated.
Cells are harvested under nondenaturating conditions and lysed with brief sonification in 1× cell lyses buffer (20 mM Tris (pH7.5), 150 mM NaCl, 1 mM ethylene diaminetetraacetate (EDTA), 1 mM ethylene glycolbis-(2-aminoethyl)-N,N,N′,N′-tetraacetic acid (EGTA), 1% Triton X-100, 2.5 mM sodium pyrophosphate, 1 mM β-glycerolphosphate, 1 mM Na3VO4, 1 μg/ml leupeptin). The lysate is microcentrifuged for 10 minutes at 4° C. and the supernatant is transferred to a new tube. 100 μl of sample diluent (0.1% tween-20, 0.1% sodium azide in 20× PBS) are added to a microcentrifuge tube and 100 μl of cell lysate are transferred into the tube and vortexed. 100 μl of each diluted cell lysate are added to the appropriate well (phospho-Akt (Ser473) antibody coated microwells; Cell Signaling, USA; #7160) and incubated overnight at 4° C. The plates are washed 4 times with 1× wash buffer (1% tween-20, 0.33% thymol, in 20×PBS). Then 100 μl of detection antibody (Akt1 (2H10) monoclonal detection antibody; Cell Signaling, USA; #2967) are added to each well and incubated for 1 h at 37° C. The washing procedure is repeated between each step. […] The absorbance is read at 450 nm (Wallac Victor2; Perkin Elmer, USA) within 30 minutes after adding STOP solution. […]

[2] = target: T1, PKA (Homo sapiens, UniProt P17612); assay: Biochemical PKA assay (flashplate); details: 100 nM ATP; read-out: PKA inhibition: −log IC50 (converted)
T1 construct: His; purchased PanVera, USA #R3791; host or cells: E. coli
Summary of the method: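 His-tagged human recombinant PKA catalytic subunit (E. coli), 1 ng/well, with 0.5 μM PKA peptide and 100 nM ATP including ^33P-ATP. Buffer […] pH7,5, 3 mM MgCl2, 3 mM MnCl2, Na-orthovanadate, 1 mM DTT; 80 min at 22° C. Stopped with H3PO4, scintillation flashplate counting, IC50 derived.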

NCCCC(=O)Nc1ccc(Nc2nc(-c3cccc4c3oc3ccccc34)cc3ccnn23)cc1 [Example 24, 4-Amino-N-[4-(5-dibenzofuran-4-yl-pyrazolo[1,5-c]pyrimidin-7-ylamino)-phenyl]-butyramide]
IC50 [1]: ≤ 6 µM

COc1cccc(-c2ccc(-c3cc4ccnn4c(Nc4ccc(NC(=O)c5ccc(CN)cc5)cc4)n3)cc2)c1 [Example 59, 4-Aminomethyl-N-{4-[5-(3′-methoxy-biphenyl-4-yl)-pyrazolo[1,5-c]pyrimidin-7-ylamino]-phenyl}-benzamide]
IC50 [2]: 6.31 to 100 µM
IC50 [1]: ≤ 6 µM

O=C(Nc1cccc(Nc2nc(-c3cccc4c3oc3ccccc34)cc3ccnn23)c1)c1ccc2c(c1)CCNC2 [Example 63, 1,2,3,4-Tetrahydro-isoquinoline-6-carboxylic acid [3-(5-dibenzofuran-4-yl-pyrazolo[1,5-c]pyrimidin-7-ylamino)-phenyl]-amide]
IC50 [2]: 6.31 to 100 µM
IC50 [1]: ≤ 6 µM

COc1cccc(-c2ccc(-c3cc4c(Br)cnn4c(Nc4ccc(NC(=O)c5ccc(CN)cc5)cc4)n3)cc2)c1 [Example 87, 4-Aminomethyl-N-{4-[3-bromo-5-(3′-methoxy-biphenyl-4-yl)-pyrazolo[1,5-c]pyrimidin-7-ylamino]-phenyl}-benzamide]
IC50 [1]: ≤ 6 µM
